Inhibition data for 38 molecules are collected here from US7977371B2, “Pyrrole derivative having ureido group and aminocarbonyl group as substituents” (Santen Pharmaceutical Co., Ltd., priority 2007, dated 2011).

The subject of this experiment is TNF-α-induced IL-6 production in normal human skin fibroblast-derived CCD-1059Sk cells. In words: Test for measurement of inhibitory activity against TNF-α-induced IL-6 production. Type of experiment: cell-based. The note with it: Homo sapiens, test compound at 10 μM, TNF-α stimulation 16 hours, inhibition ratio of 100% or more is indicated as 100%. As to the method:
1. Test for Measurement of Inhibitory Activity Against IL-6 Production
An inhibitory effect on TNF-α-induced IL-6 production in normal human skin fibroblast-derived CCD-1059Sk cells (ATCC No. CRL-2072) was evaluated. The amount of IL-6 was determined by the homogeneous time-resolved fluorescence method using HTRF™ Human IL-6 kit (Cat. No. 62IL6PEB, manufactured by CIS-Bio international, Inc.). Specific test methods will be described below.
(Preparation of Test Compound Solution)
After a test compound was dissolved in dimethyl sulfoxide, the resulting solution was diluted with D-MEM medium containing 0.1% heat-inactivated fetal bovine serum, 0.1 mM MEM non-essential amino acid solution, 100 U/mL penicillin and 100 μg/mL streptomycin (hereinafter referred to as “medium”), whereby a 40 μM test compound solution was prepared.
(Test Method and Measurement Method)
1) CCD-1059Sk cells prepared at a density of 3×10^5 cells/mL were inoculated in a 384-well plate in an amount of 10 μL per well such that the cell density was 3×10^3 cells/well.
2). After the plate was incubated at 37° C. for several hours in a CO2 incubator, 5 μL of the test compound was added to each well.
3) After the plate was incubated at 37° C. for 1 hour in a CO2 incubator, 5 μL of a 40 ng/mL TNF-α solution was added to each well.
4) After the plate was incubated at 37° C. for 16 hours in a CO2 incubator, 10 μL of a cryptate-labeled anti-IL-6 antibody and an XL665-labeled anti-IL-6 antibody containing potassium fluoride was added to each well.
5) After the plate was incubated at room temperature for several hours, a fluorescence intensity ratio (665 nm/620 nm) was determined for each well using a multimode plate reader Analyse™ HT (manufactured by Molecular Device Corporation) and Criterion Host software version 2.00 (manufactured by Molecular Device Corporation), and then, the amount of IL-6 was calculated.
6) The same procedures as in the above 1) to 5) were performed except that 0.4% dimethyl sulfoxide was added in place of the test compound, and the obtained result was designated as the control.
7) The same procedures as in the above 1) to 5) were performed except that 0.4% dimethyl sulfoxide and the medium were added in place of the test compound and the TNF-α solution, respectively, and the obtained result was designated as the background.
(Calculation Formula of IL-6 Production Inhibition Ratio)
An IL-6 production inhibition ratio (%) was calculated from the following formula. IL-6 Production Inhibition Ratio (%)=100×{1−[(Amount of IL-6 for Test Compound)−(Amount of IL-6 for Background)/(Amount of IL-6 for Control)−(Amount of IL-6 for Background)]} (Evaluation Results)

The structures appear in SMILES notation. Where a name gives a salt, the structure may show the parent alone.

As to `NC(=O)Nc1[nH]c(-c2ccccc2OCc2cccnc2)cc1C(N)=O` [Compound 4-15, 2-Aminocarbonylamino-5-[2-(pyridin-3-ylmethyloxy)phenyl]pyrrole-3-carboxamide], the inhibition at 10 µM (CCD-1059Sk, 16 h) worked out at 91%.
Regarding `NC(=O)Nc1[nH]c(-c2ccccc2OCC2CC2)cc1C(N)=O` [Compound 4-23, 2-Aminocarbonylamino-5-(2-cyclopropylmethyloxyphenyl) pyrrole-3-carboxamide], the inhibition at 10 µM (CCD-1059Sk, 16 h) is 97%.
Take `NC(=O)Nc1[nH]c(-c2ccccc2OCCCF)cc1C(N)=O` [Compound 4-24, 2-Aminocarbonylamino-5-[2-(3-fluoropropyloxy)phenyl] pyrrole-3-carboxamide]: the inhibition at 10 µM (CCD-1059Sk, 16 h) was found to be 99%.
Same read-out and setting: the figure for `NC(=O)Nc1[nH]c(-c2ccccc2OCCN2CCCCC2)cc1C(N)=O` [Compound 4-27, 2-Aminocarbonylamino-5-[2-[2-(piperidin-1-yl)ethyloxyl]phenyl]pyrrole-3-carboxamide] is 99%.
Consider `CN(C)CCCOc1ccccc1-c1cc(C(N)=O)c(NC(N)=O)[nH]1` [Compound 4-30, 2-Aminocarbonylamino-5-[2-(3-dimethylaminopropyloxy)phenyl]pyrrole-3-carboxamide], for which the inhibition at 10 µM (CCD-1059Sk, 16 h) is 99%.
Still for that read-out and setting: for `CN(C)CCOc1ccccc1-c1cc(C(N)=O)c(NC(N)=O)[nH]1` [Compound 4-31, 2-Aminocarbonylamino-5-[2-(2-dimethylaminoethyloxy)phenyl]pyrrole-3-carboxamide] the value was 98%.
Same read-out and setting: the figure for `CN1CCCC1CCOc1ccccc1-c1cc(C(N)=O)c(NC(N)=O)[nH]1` (centres unmarked) [Compound 4-32, 2-Aminocarbonylamino-5-[2-[2-(1-methylpyrrolidin-2-yl)ethyloxy]phenyl]pyrrole-3-carboxamide] is 99%; for `NC(=O)Nc1[nH]c(-c2cc(F)ccc2OCCCO)cc1C(N)=O` [Compound 4-35, 2-Aminocarbonylamino-5-[5-fluoro-2-(3-hydroxypropyloxy)phenyl]pyrrole-3-carboxamide] it is 100%.
Still for that read-out and setting: the figure for `CCOc1ccc(F)cc1-c1cc(C(N)=O)c(NC(N)=O)[nH]1` [Compound 4-47, 2-Aminocarbonylamino-5-(2-ethoxy-5-fluorophenyl)pyrrole-3-carboxamide] is 100%; for `CCOc1ccc(Cl)cc1-c1cc(C(N)=O)c(NC(N)=O)[nH]1` [Compound 4-48, 2-Aminocarbonylamino-5-(5-chloro-2-ethoxyphenyl)pyrrole-3-carboxamide] it is 100%.
With `C=CCOc1ccc(Cl)cc1-c1cc(C(N)=O)c(NC(N)=O)[nH]1` [Compound 4-49, 5-(2-Allyloxy-5-chlorophenyl)-2-(aminocarbonylamino)pyrrole-3-carboxamide], the inhibition at 10 µM (CCD-1059Sk, 16 h) turned out to be 100%.
The same measure, in the same setting: the figure for `C#CCOc1ccc(Cl)cc1-c1cc(C(N)=O)c(NC(N)=O)[nH]1` [Compound 4-50, 2-Aminocarbonylamino-5-[5-chloro-2-(2-propynyloxy)phenyl]pyrrole-3-carboxamide] is 100%.
As to `CC(=O)Oc1ccccc1-c1cc(C(N)=O)c(NC(N)=O)[nH]1` [Compound 5-1, 2-Aminocarbonylamino-5-(2-acetoxyphenyl)pyrrole-3-carboxamide], the inhibition at 10 µM (CCD-1059Sk, 16 h) was 94%.
As for `CCCNC(=O)Oc1ccccc1-c1cc(C(N)=O)c(NC(N)=O)[nH]1` [Compound 6-1, 2-Aminocarbonylamino-5-(2-propylaminocarbonyloxyphenyl)pyrrole-3-carboxamide], the inhibition at 10 µM is 99%.
Take `NC(=O)Nc1[nH]c(-c2ccc(F)cc2)c(Cl)c1C(N)=O` [Compound 7-3]: the inhibition at 10 µM (CCD-1059Sk, 16 h) turned out to be 98%.
Still for that read-out and setting: for `NC(=O)Nc1[nH]c(-c2ccccc2OCCCN2CCCC2)cc1C(N)=O` [Compound 8-1, 2-Aminocarbonylamino-5-[2-[3-(pyrrolidin-1-yl)propyloxy]phenyl]pyrrole-3-carboxamide] the value was 97%; for `CN1CCN(CCOc2ccccc2-c2cc(C(N)=O)c(NC(N)=O)[nH]2)CC1` [Compound 8-2], 77%; for `NC(=O)Nc1[nH]c(-c2ccccc2OCCN2CCOCC2)cc1C(N)=O` [Compound 8-3], 95%.
Take `NC(=O)Nc1[nH]c(-c2ccccc2OCCN2CCCC2)cc1C(N)=O` [Compound 8-4]: the inhibition at 10 µM (CCD-1059Sk, 16 h) came to 99%.
In the case of `CC1CCN(CCOc2ccccc2-c2cc(C(N)=O)c(NC(N)=O)[nH]2)CC1` [Compound 8-10], the inhibition at 10 µM (CCD-1059Sk, 16 h) was 98%.
Still for that read-out and setting: the figure for `CN(CCO)CCOc1ccccc1-c1cc(C(N)=O)c(NC(N)=O)[nH]1` [Compound 8-11] is 96%.
Same read-out and setting: for `NC(=O)Nc1[nH]c(-c2cc(F)ccc2OCCN2CCCC2)cc1C(N)=O` [Compound 8-12] the value was 100%; for `CC1CCN(CCOc2ccc(F)cc2-c2cc(C(N)=O)c(NC(N)=O)[nH]2)CC1` [Compound 8-13], 100%.
In the case of `NC(=O)Nc1[nH]c(-c2cc(Cl)ccc2OCCN2CCCCC2)cc1C(N)=O` [Compound 8-14], under “CCD-1059Sk, 16 h”, the inhibition at 10 µM came to 100%.
On the same count and under the same terms, the figure for `CN1CCN(CCOc2ccc(Cl)cc2-c2cc(C(N)=O)c(NC(N)=O)[nH]2)CC1` [Compound 8-15] is 98%; for `NC(=O)Nc1[nH]c(-c2cc(Cl)ccc2OCCN2CCC(CCO)CC2)cc1C(N)=O` [Compound 8-16] it is 100%.
Still for that read-out and setting: the figure for `CN(CCO)CCOc1ccc(F)cc1-c1cc(C(N)=O)c(NC(N)=O)[nH]1` [Compound 8-17] is 100%; for `CSCCOc1ccc(F)cc1-c1cc(C(N)=O)c(NC(N)=O)[nH]1` [Compound 8-18] it is 100%; for `CN(CCOc1ccc(F)cc1-c1cc(C(N)=O)c(NC(N)=O)[nH]1)C1CCCCC1` [Compound 8-22] it is 98%.
Take `C=Cc1ccc(-c2cc(C(N)=O)c(NC(N)=O)[nH]2)cc1` [Compound 9-1, 2-Aminocarbonylamino-5-(4-vinylphenyl)pyrrole-3-carboxamide]: the inhibition at 10 µM (CCD-1059Sk, 16 h) was found to be 100%.
Take `NC(=O)Nc1[nH]c(-c2ccoc2)cc1C(N)=O` [Compound 9-2]: the inhibition at 10 µM (CCD-1059Sk, 16 h) stood at 87%.
Turning to `NC(=O)Nc1[nH]c(-c2cccc(C#CCO)c2)cc1C(N)=O` [Compound 10-3], the inhibition at 10 µM (CCD-1059Sk, 16 h) came out at 100%.
On to `C#Cc1cccc(-c2cc(C(N)=O)c(NC(N)=O)[nH]2)c1` [Compound 11-1, 2-Aminocarbonylamino-5-(3-ethynylphenyl)pyrrole-3-carboxamide], for which, under “CCD-1059Sk, 16 h”, the inhibition at 10 µM worked out at 100%.
As for `CSCc1cccc(-c2cc(C(N)=O)c(NC(N)=O)[nH]2)c1` [Compound 15-1, 2-Aminocarbonylamino-5-(3-methylthiomethylphenyl)pyrrole-3-carboxamide], the inhibition at 10 µM (CCD-1059Sk, 16 h) was 98%.
Still for that read-out and setting: the figure for `NC(=O)Nc1[nH]c(-c2cccc(Cl)c2)c(C=O)c1C(N)=O` [Compound 17-1, 2-Aminocarbonylamino-5-(3-chlorophenyl)-4-formylpyrrole-3-carboxamide] is 98%; for `NC(=O)Nc1[nH]c(-c2cccc(Cl)c2)c(CO)c1C(N)=O` [Compound 18-1, 2-Aminocarbonylamino-5-(3-chlorophenyl)-4-(hydroxymethyl)pyrrole-3-carboxamide] it is 90%; for `CNCc1c(-c2cccc(Cl)c2)[nH]c(NC(N)=O)c1C(N)=O` [Compound 19-1, 2-Aminocarbonylamino-5-(3-chlorophenyl)-4-(methylaminomethyl)pyrrole-3-carboxamide] it is 97%.
Regarding `CNCCOc1ccccc1-c1cc(C(N)=O)c(NC(N)=O)[nH]1` [Compound 20-1, 2-Aminocarbonylamino-5-[2-(2-methylaminoethyloxy)phenyl]pyrrole-3-carboxamide hydrochloride], under “CCD-1059Sk, 16 h”, the inhibition at 10 µM was determined as 95%.
